Assay results from ChEMBL document CHEMBL1140855, “Design, synthesis, and binding affinities of potential positron emission tomography (PET) ligands with optimal lipophilicity for brain imaging of the dopamine D3 receptor. Part II” (Bioorg Med Chem, 2009).

How the values were obtained:
[1] = Lipophilicity, log P of the compound; type: physicochemical; conditions: octanol/water
[2] = Lipophilicity, log P at pH 7.4; type: physicochemical; conditions: buffer
[3] = Dissociation constant, pKa of the compound; type: physicochemical
D(3) dopamine receptor = D(3) dopamine receptor (Homo sapiens, UniProt P35462)
Sequence of D(3) dopamine receptor (P35462 whole entry): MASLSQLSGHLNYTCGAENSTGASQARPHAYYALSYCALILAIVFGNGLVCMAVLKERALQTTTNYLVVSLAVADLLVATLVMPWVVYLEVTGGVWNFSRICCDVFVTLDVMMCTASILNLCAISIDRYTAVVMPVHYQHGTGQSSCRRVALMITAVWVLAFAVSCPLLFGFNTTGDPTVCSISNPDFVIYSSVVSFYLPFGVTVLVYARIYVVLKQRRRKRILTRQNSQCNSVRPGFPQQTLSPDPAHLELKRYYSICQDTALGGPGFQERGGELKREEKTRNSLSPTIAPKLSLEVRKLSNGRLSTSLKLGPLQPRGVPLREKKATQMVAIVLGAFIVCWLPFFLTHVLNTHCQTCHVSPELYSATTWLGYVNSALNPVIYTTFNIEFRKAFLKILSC
Description: Displacement of [3H]spiroperidol from human cloned dopamine D3 receptor by liquid scintillation counting

D(2) dopamine receptor = D(2) dopamine receptor (Homo sapiens, UniProt P14416)
Sequence of D(2) dopamine receptor (P14416 whole entry): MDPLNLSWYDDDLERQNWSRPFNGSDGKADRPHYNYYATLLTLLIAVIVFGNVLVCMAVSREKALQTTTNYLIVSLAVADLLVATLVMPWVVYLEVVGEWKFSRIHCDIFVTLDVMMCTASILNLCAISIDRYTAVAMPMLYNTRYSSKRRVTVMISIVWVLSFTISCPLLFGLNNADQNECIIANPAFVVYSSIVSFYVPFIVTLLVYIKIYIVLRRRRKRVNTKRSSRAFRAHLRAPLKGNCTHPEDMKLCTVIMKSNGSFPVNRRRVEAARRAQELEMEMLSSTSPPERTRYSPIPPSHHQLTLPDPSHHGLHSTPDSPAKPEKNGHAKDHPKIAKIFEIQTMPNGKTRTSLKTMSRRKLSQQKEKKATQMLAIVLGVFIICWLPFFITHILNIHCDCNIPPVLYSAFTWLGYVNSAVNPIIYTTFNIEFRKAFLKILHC
Description: Displacement of [3H]spiroperidol from human cloned dopamine D2L receptor by liquid scintillation counting

| SMILES | logP [1] | logD [2] | pKa [3] | Ki (D(3) dopamine receptor) [µM] | Ki (D(2) dopamine receptor) [µM] |
| --- | --- | --- | --- | --- | --- |
| O=C(NCCCCN1CCN(c2ccccc2OCCF)CC1)c1ccc(-n2ccnc2)cc1 | 2.9 | 2.4 | 7.74 | 0.00295 | 0.00592 |
| COc1ccccc1N1CCN(CCCCNC(=O)c2ccc3nonc3c2)CC1 | 2.79 | 2.26 | 7.78 | 0.0047 | 0.031 |
| CCCN(CCC)C1CCc2cc(CS(=O)(=O)c3ccc(OC)cc3)ccc2C1 (configuration not stated) | – | – | – | 0.0013 | – |
| COc1ccccc1N1CCN(CCCNC(=O)c2ccc3nonc3c2)CC1 | 2.66 | 2.34 | 7.43 | > 1 | 0.0894 |
| COc1cccc(N2CCN(CCCCNC(=O)c3ccc4nonc4c3)CC2)c1 | 2.8 | 2.48 | 7.44 | 0.17 | > 0.1 |
| COc1ccccc1N1CCN(CCCCOc2ccc(C3CN4C=CSC4=N3)cc2)CC1 (configuration not stated) | – | – | – | 0.00012 | – |
| O=C(NCCCCN1CCN(c2cccc(OCCF)c2)CC1)c1ccc2nonc2c1 | 2.87 | 2.53 | 7.47 | 0.226 | > 1 |
| O=C(NCCCCN1CCN(c2ccccc2OCCF)CC1)c1ccc2nonc2c1 | 2.79 | 2.26 | 7.78 | 0.0221 | 0.0178 |

Further lines, results first:

| logP [1] | logD [2] | pKa [3] | Ki (D(3) dopamine receptor) [µM] | Ki (D(2) dopamine receptor) [µM] | SMILES |
| --- | --- | --- | --- | --- | --- |
| 2.9 | 2.51 | 7.56 | 0.0472 | 0.196 | O=C(NCCCCN1CCN(c2cccc(OCCF)c2)CC1)c1ccc(-n2ccnc2)cc1 |
| 2.59 | 2.22 | 7.53 | 0.0953 | 0.121 | COc1ccccc1N1CCN(CCCNC(=O)c2ccc(-n3ccnc3)cc2)CC1 |
| 2.8 | 2.37 | 7.64 | 0.211 | > 1 | COc1ccc(N2CCN(CCCCNC(=O)c3ccc(-n4ccnc4)cc3)CC2)cc1 |
| 3.16 | 2.8 | 7.52 | 0.0292 | 0.133 | COc1cc(F)cc(N2CCN(CCCCNC(=O)c3ccc(-n4ccnc4)cc3)CC2)c1 |
| 3.34 | 3.12 | 7.34 | 0.658 | 1.34 | COc1cc(F)cc(N2CCN(CCCCNC(=O)c3ccc4nonc4c3)CC2)c1 |
| 3.1 | 2.39 | 8.05 | 0.00423 | 0.0517 | COc1ccccc1N1CCN(CCCCNC(=O)c2ccc(-n3ccnc3)cc2)CC1 |
| 2.77 | 2.41 | 7.51 | 6.22 | > 1 | COc1ccc(N2CCN(CCCCNC(=O)c3ccc4nonc4c3)CC2)cc1 |
| 2.93 | 2.51 | 7.59 | 0.0199 | 0.243 | COc1cccc(N2CCN(CCCCNC(=O)c3ccc(-n4ccnc4)cc3)CC2)c1 |
